In patent US11673866B2, “Estrogen receptor beta ligands for the prevention and treatment of multiple sclerosis (MS) and other demyelinating, inflammatory and neurodegenerative diseases” (The Board of Trustees of the University of Illinois, priority 2018, dated 2023):
Entries after “also recorded” stand apart in the source; their conditions may differ.

Tests used:
[1] = test system: MOG35-55-stimulated splenocytes; experiment: Cytokine and chemokine production by splenocytes from EAE mice (Luminex); type: in vivo, mouse; design: key to Peripheral Inflammatory Cytokines: IFNγ / Peripheral Inflammatory Cytokines: IL-lβ / Peripheral Inflammatory Cytokines: IL-2 / Peripheral Inflammatory Cytokines: IL-6 / Peripheral Inflammatory Cytokines: IL-17 / Peripheral Inflammatory Cytokines: TNFα / Peripheral Th2 & Anti-inflammatory Cytokines: IL-4 / Peripheral Th2 & Anti-inflammatory Cytokines: IL-5 / Peripheral Th2 & Anti-inflammatory Cytokines: IL-10 / Peripheral Th2 & Anti-inflammatory Cytokines: IL-13 / Peripheral Chemokines: CXCL1 / Peripheral Chemokines: CXCL10: ‘+’ indicate marker was significantly (p ≤ 0.05) increased in treatment group relative to vehicle; ‘−’ indicates marker was significantly (p ≤ 0.05) decreased in treatment group relative to vehicle; ○: ‘o’ indicate marker did not change relative to vehicle; details: for Peripheral Chemokines: CXCL1 / Peripheral Chemokines: CXCL10 / Peripheral Inflammatory Cytokines: IFNγ / Peripheral Inflammatory Cytokines: IL-2 / Peripheral Inflammatory Cytokines: IL-6 / Peripheral Inflammatory Cytokines: IL-17 / Peripheral Inflammatory Cytokines: IL-lβ / Peripheral Inflammatory Cytokines: TNFα / Peripheral Th2 & Anti-inflammatory Cytokines: IL-4 / Peripheral Th2 & Anti-inflammatory Cytokines: IL-5 / Peripheral Th2 & Anti-inflammatory Cytokines: IL-10 / Peripheral Th2 & Anti-inflammatory Cytokines: IL-13: vs vehicle
Experimental: Splenocyte Isolation & Cytokine Analysis: On day 20-21 after induction of EAE, spleens were harvested prior to transcardial perfusion. Spleens were dissected from anesthetized mice and mechanically dissociated into a single cell suspension in cold RPMI 1640 supplemented with pyruvate, L-glutamine, and 10% fetal bovine serum (henceforth referred to as RPMI). Red blood cells were lysed by incubation with ACK buffer (VWR), washed, counted, and resuspended in RPMI for cytokine analysis. Splenocytes were then stimulated with 25 μg/ml MOG35-55 and supernatants were collected 48 hours later (Khalaj et al., 2013; Moore et al., 2013). Levels of the anti-inflammatory cytokines: IL-10, IL-13, IL-4 and IL-5; pro-inflammatory cytokines IFNγ, IL-17, IL-1β TNFα, IL-6 and IL-2; and chemokines: CXCL1, CXCL10 were determined by Cytokine Mouse Magnetic Panel for Luminex (Thermo Fisher Scientific; Waltham, Mass.) and run on the xMAP MAGPIX 100™ instrument (Luminex Corporation, Austin, Tx) according to manufacturer's instructions.
During MS and EAE, peripherally activated leukocytes secrete inflammatory cytokines and chemokines as they migrate into the CNS, where they contribute to demyelination and axon damage (Fletcher et al., 2010). To characterize the effects of IndCl analogues on the peripheral immune response, splenocytes were isolated from mice 21 days post-immunization and stimulated ex vivo with MOG35-55 peptide for cytokine and chemokine analysis using a magnetic bead-based 20-plex cytokine/chemokine detection assay. Cytokines related to inflammation, CD4+ T cell polarization, immune regulation, and chemokines associated with OL apoptosis and myelination that were measured in collected supernatants are presented below.

ERβ = ERβ (Homo sapiens, UniProt Q92731); experiment: Relative binding affinity (RBA) to estrogen receptor beta, radiometric measurement; details: for β/α Ratio: ratio of RBA ERβ to RBA ERα; for RBA ERβ: relative value to 100% for E2 by radiometric measurement
Chain of ERβ (Q92731 whole entry, species assumed): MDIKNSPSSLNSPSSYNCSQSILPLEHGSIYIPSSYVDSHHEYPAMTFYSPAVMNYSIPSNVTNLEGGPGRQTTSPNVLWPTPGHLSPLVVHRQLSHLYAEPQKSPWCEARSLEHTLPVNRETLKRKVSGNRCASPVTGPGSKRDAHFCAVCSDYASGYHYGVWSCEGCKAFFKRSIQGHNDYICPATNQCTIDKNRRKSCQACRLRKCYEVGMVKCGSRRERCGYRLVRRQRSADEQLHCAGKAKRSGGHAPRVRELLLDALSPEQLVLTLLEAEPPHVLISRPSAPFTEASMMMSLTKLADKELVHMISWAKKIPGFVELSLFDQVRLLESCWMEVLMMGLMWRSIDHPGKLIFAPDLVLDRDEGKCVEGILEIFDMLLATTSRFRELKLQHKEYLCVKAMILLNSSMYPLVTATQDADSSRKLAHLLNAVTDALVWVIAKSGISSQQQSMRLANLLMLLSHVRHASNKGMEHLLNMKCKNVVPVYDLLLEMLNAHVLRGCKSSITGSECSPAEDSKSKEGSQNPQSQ

[2] = test system: myelin basic protein (MBP) in thoracic spinal cord ventral column; experiment: MBP immunoreactivity in thoracic ventral column white matter of EAE mice; type: in vivo, mouse; details: therapeutic treatment (postEAE), vs vehicle
Experimental: Histological Preparation of Tissues: Mice were deeply anesthetized by isoflurane (Piramal Healthcare) inhalation and perfused transcardially with phosphate buffered saline (PBS), followed by 10% formalin (Thermo Fisher Scientific) to fix tissues. Brains and spinal cords were dissected and post-fixed in 10% formalin (Thermo Fisher Scientific) for 24 hours, then cryoprotected in 30% sucrose (EMD Millipore, Darmstadt, Germany) for 48 hours and embedded in gelatin for sectioning. Embedded brains and spinal cords were then cut into 40-μm coronal sections using an HM525 NX cryostat (Thermo Fisher Scientific). Sections were collected serially and stored in PBS with 1% sodium azide at 4° C. until staining by immunohistochemistry, following a previously described protocol (Crawford et al., 2010; Moore et al., 2014).
Immunohistochemistry: Before histological staining, 40-μm free floating sections were thoroughly washed with PBS to remove residual sodium azide (Crawford et al., 2010). Sections were permeabilized with 0.3% Triton X-100 in ix PBS and 15% normal goat serum (NGS). […]
Confocal Microscopy: Thoracic spinal cord dorsal and ventral column sections, as well as CC were imaged using an Olympus BX61 confocal microscope (Olympus America Inc., Center Valley, Pa.) using a 10× and 40× objective. […] Immunostaining was quantified using unbiased stereology (Crawford et al., 2010). […] MBP^+, GFAP^+, CD45^+, Iba1^+, CC1^+, and CXCL1^+, staining intensity was measured as percent area of positive immunoreactivity within the region of interest and intensity of signal determined by ImageJ.
Treatment with IndCl or other ERβ ligands improves myelination within CNS white tracts of mice with EAE (Khalaj et al., 2013; Kumar et al., 2013; Moore et al., 2014). To establish the pro-myelinating effects of the IndCl analogues tested, thoracic ventral column white matter was assessed for myelin basic protein (MBP) immunoreactivity.

[3] = Post (therapeutic, postEAE) treatment of EAE mice
[4] = therapeutic treatment (postEAE), day 21, vs vehicle
[5] = Pre (prophylactic, preEAE) E2 treatment of EAE mice
[6] = prophylactic E2 (preEAE), day 21, vs vehicle

Cc1cc(O)ccc1-n1nc2ccc(O)cc2c1Cl [IndCl-o-Me, 3-chloro-2-(4-hydroxy-2-methylphenyl)-2H-indazol-5-ol] was tested, and the “Peripheral Chemokines: CXCL1” value [1, 3] was “+”, the “Peripheral Chemokines: CXCL10” value [1, 3] was “−” and the “Peripheral Inflammatory Cytokines: IFNγ” value [1, 3] was “−”. The “Peripheral Inflammatory Cytokines: IL-2” value [1, 3] was “○”, the “Peripheral Inflammatory Cytokines: IL-6” value [1, 3] was “−” and the “Peripheral Inflammatory Cytokines: IL-17” value [1, 3] was “−”. The “Peripheral Inflammatory Cytokines: IL-lβ” value [1, 3] was “○”, the “Peripheral Inflammatory Cytokines: TNFα” value [1, 3] was “○” and the “Peripheral Th2 & Anti-inflammatory Cytokines: IL-4” value [1, 3] was “○”. For the same compound, the “Peripheral Th2 & Anti-inflammatory Cytokines: IL-5” value [1, 3] was “○”, the “Peripheral Th2 & Anti-inflammatory Cytokines: IL-10” value [1, 3] was “○” and the “Peripheral Th2 & Anti-inflammatory Cytokines: IL-13” value [1, 3] was “−”. The “IFNγ production by splenocytes” value [1, 4] was “significantly decreasing”, the “IL-6 production by splenocytes” value [1, 4] was “significantly decreasing” and the “IL-13 production by splenocytes” value [1, 4] was “attenuated”. For the same compound, the “IL-17 production by splenocytes” value [1, 4] was “significantly decreasing; also recorded: reducing”, the “IFNγ production by splenocytes” value ([1]; therapeutic treatment (postEAE), day 21, vs vehicle, listed as o-Me) was “decreased” and the “β/α Ratio” value (ERβ) was 48.9. The “RBA ERβ” value (ERβ) was 21.1% and the “MBP staining intensity, thoracic spinal cord ventral column” value (“MBP staining intensity” for short) [2] was “maintained at near normal levels; also recorded: increased”.

For Oc1ccc(-n2nc3ccc(O)cc3c2Cl)cc1 [IndCl, chloroindazole], the “Peripheral Chemokines: CXCL1” value [1, 3] was “+”, the “Peripheral Chemokines: CXCL10” value [1, 3] was “−” and the “Peripheral Inflammatory Cytokines: IFNγ” value [1, 3] was “−”. For the same compound, the “Peripheral Inflammatory Cytokines: IL-2” value [1, 3] was “○”, the “Peripheral Inflammatory Cytokines: IL-6” value [1, 3] was “○” and the “Peripheral Inflammatory Cytokines: IL-17” value [1, 3] was “○”. The “Peripheral Inflammatory Cytokines: IL-lβ” value [1, 3] was “+”, the “Peripheral Inflammatory Cytokines: TNFα” value [1, 3] was “○” and the “Peripheral Th2 & Anti-inflammatory Cytokines: IL-4” value [1, 3] was “○”. For the same compound, the “Peripheral Th2 & Anti-inflammatory Cytokines: IL-5” value [1, 3] was “○”, the “Peripheral Th2 & Anti-inflammatory Cytokines: IL-10” value [1, 3] was “○” and the “Peripheral Th2 & Anti-inflammatory Cytokines: IL-13” value [1, 3] was “○”. The “CXCL1 production by splenocytes” value [1, 4] was “increased”, the “CXCL10 production by splenocytes” value [1, 4] was “decreased” and the “IFNγ production by splenocytes” value [1, 4] was “significantly decreased”. For the same compound, the “IL-1β production by splenocytes” value [1, 4] was “increased”, the “Th2 (IL-4, IL-5, IL-13) and IL-10 cytokine production by splenocytes” value [1, 4] was “no effect” and the “β/α Ratio” value (ERβ) was 107. The “RBA ERβ” value (ERβ) was 32.1% and the “MBP staining intensity” value [2] was “maintained at near normal levels; also recorded: increased”.

In the case of Oc1ccc(-n2nc3ccc(O)cc3c2Cl)c(Cl)c1 [IndCl-o-Cl, 3-chloro-2-(2-chloro-4-hydroxyphenyl)-2H-indazol-5-ol], the “Peripheral Chemokines: CXCL1” value [1, 3] is reported as “+”, the “Peripheral Chemokines: CXCL10” value [1, 3] is reported as “−” and the “Peripheral Inflammatory Cytokines: IFNγ” value [1, 3] is reported as “−”. The “Peripheral Inflammatory Cytokines: IL-2” value [1, 3] was “○”, the “Peripheral Inflammatory Cytokines: IL-6” value [1, 3] was “−” and the “Peripheral Inflammatory Cytokines: IL-17” value [1, 3] was “−”. For the same compound, the “Peripheral Inflammatory Cytokines: IL-lβ” value [1, 3] was “○”, the “Peripheral Inflammatory Cytokines: TNFα” value [1, 3] was “○” and the “Peripheral Th2 & Anti-inflammatory Cytokines: IL-4” value [1, 3] was “○”. The “Peripheral Th2 & Anti-inflammatory Cytokines: IL-5” value [1, 3] was “○”, the “Peripheral Th2 & Anti-inflammatory Cytokines: IL-10” value [1, 3] was “○” and the “Peripheral Th2 & Anti-inflammatory Cytokines: IL-13” value [1, 3] was “−”. The “IFNγ production by splenocytes” value [1, 4] was “significantly decreased”, the “IL-6 production by splenocytes” value [1, 4] was “significantly decreased” and the “IL-13 production by splenocytes” value [1, 4] was “attenuated”. For the same compound, the “IFNγ production by splenocytes” value ([1]; therapeutic treatment (postEAE), day 21, vs vehicle, listed as o-Cl) was “decreased”, the “β/α Ratio” value (ERβ) was 27.1 and the “RBA ERβ” value (ERβ) was 10.9%. For the same compound, the “MBP staining intensity” value [2] was “maintained at near normal levels; also recorded: increased”.

C[C@]12CC[C@@H]3c4ccc(O)cc4CC[C@H]3[C@@H]1CC[C@@H]2O [E2, 170 estradiol] was tested, and the “Peripheral Chemokines: CXCL1” value [1, 3] was “+”, the “Peripheral Chemokines: CXCL10” value [1, 3] was “−” and the “Peripheral Inflammatory Cytokines: IFNγ” value [1, 3] was “−”. The “Peripheral Inflammatory Cytokines: IL-2” value [1, 3] was “○”, the “Peripheral Inflammatory Cytokines: IL-6” value [1, 3] was “−” and the “Peripheral Inflammatory Cytokines: IL-17” value [1, 3] was “−”. For the same compound, the “Peripheral Inflammatory Cytokines: IL-lβ” value [1, 3] was “○”, the “Peripheral Inflammatory Cytokines: TNFα” value [1, 3] was “○” and the “Peripheral Th2 & Anti-inflammatory Cytokines: IL-4” value [1, 3] was “○”. For the same compound, the “Peripheral Th2 & Anti-inflammatory Cytokines: IL-5” value [1, 3] was “○”, the “Peripheral Th2 & Anti-inflammatory Cytokines: IL-10” value [1, 3] was “○” and the “Peripheral Th2 & Anti-inflammatory Cytokines: IL-13” value [1, 3] was “○”. For the same compound, the “Peripheral Chemokines: CXCL1” value [1, 5] was “+”, the “Peripheral Chemokines: CXCL10” value [1, 5] was “−” and the “Peripheral Inflammatory Cytokines: IFNγ” value [1, 5] was “−”. The “Peripheral Inflammatory Cytokines: IL-2” value [1, 5] was “−”, the “Peripheral Inflammatory Cytokines: IL-6” value [1, 5] was “−” and the “Peripheral Inflammatory Cytokines: IL-17” value [1, 5] was “−”. The “Peripheral Inflammatory Cytokines: IL-lβ” value [1, 5] was “○”, the “Peripheral Inflammatory Cytokines: TNFα” value [1, 5] was “○” and the “Peripheral Th2 & Anti-inflammatory Cytokines: IL-4” value [1, 5] was “○”. For the same compound, the “Peripheral Th2 & Anti-inflammatory Cytokines: IL-5” value [1, 5] was “○”, the “Peripheral Th2 & Anti-inflammatory Cytokines: IL-10” value [1, 5] was “○” and the “Peripheral Th2 & Anti-inflammatory Cytokines: IL-13” value [1, 5] was “○”. For the same compound, the “IL-1β production by splenocytes” value [1, 6] was “no effect” and the “TNFα production by splenocytes” value [1, 6] was “no effect”.
